Each block holds one compound with its values, some of them ahead of it.
Columns and labels:
[1] = target: G-protein coupled receptor 84 (Homo sapiens, UniProt Q9NQS5); test: Antagonist activity at human GPR84 expressed in HEK293 cells co-expressing Galpha16 assessed as reduction in 6-OAU induced intracellular calcium response preincubated for 10 mins followed by agonist addition and measured after 1 min by calcium mobilization assay; assay type: functional, cell-based
[2] = target: G-protein coupled receptor 84 (Mus musculus, UniProt Q8CIM5); test: Antagonist activity at mouse GPR84 expressed in HEK293 cells assessed as reduction in 6-OAU induced intracellular calcium response preincubated for 10 mins followed by agonist addition and measured after 1 min by calcium mobilization assay; assay type: functional, cell-based
[3] = target: G-protein coupled receptor 84 (Mus musculus) (UniProt Q8CIM5); test: Antagonist activity at GPR84 expressed in mouse bone marrow cells assessed as reduction in 6-OAU induced migration in neutrophils incubated for 90 mins by flow cytometry; assay type: functional, cell-based; conditions: Bone marrow cell, filed as antagonist, dose 0.01-1 µM, DDE = dose-dependent effect
[4] = target: G-protein coupled receptor 84 (Mus musculus) (UniProt Q8CIM5); test: Antagonist activity at GPR84 expressed in mouse bone marrow cells assessed as reduction in 6-OAU/3-OH-C12 induced migration in monocytes incubated for 90 mins by flow cytometry; assay type: functional, cell-based; conditions: Bone marrow cell, filed as antagonist, dose 0.01-1 µM, DDE = dose-dependent effect
[5] = Tmax in CD-1 mouse at 5 mg/kg, po administered as single dose measured upto 24 hrs by LC-MS/MS analysis; assay type: ADME, organism-based; conditions: in vivo
[6] = Cmax in CD-1 mouse at 5 mg/kg, po administered as single dose measured upto 24 hrs by LC-MS/MS analysis; assay type: ADME, organism-based; set-up: time < 24 hrs, dose 5 mg/kg, route po; conditions: in vivo
[7] = MRT in CD-1 mouse at 2 mg/kg, iv administered as single dose measured upto 24 hrs by LC-MS/MS analysis; assay type: ADME, organism-based; conditions: in vivo
[8] = AUC(0 to infinity) in CD-1 mouse at 5 mg/kg, po administered as single dose measured upto 24 hrs by LC-MS/MS analysis; assay type: ADME, organism-based; set-up: time < 24 hrs, dose 5 mg/kg, route po; conditions: in vivo
[9] = AUC(0 to infinity) in CD-1 mouse at 2 mg/kg, iv administered as single dose measured upto 24 hrs by LC-MS/MS analysis; assay type: ADME, organism-based; set-up: time < 24 hrs, dose 2 mg/kg, route iv; conditions: in vivo
[10] = Half life in CD-1 mouse at 5 mg/kg, po administered as single dose measured upto 24 hrs by LC-MS/MS analysis; assay type: ADME, organism-based; conditions: in vivo
[11] = Half life in CD-1 mouse at 2 mg/kg, iv administered as single dose measured upto 24 hrs by LC-MS/MS analysis; assay type: ADME, organism-based; conditions: in vivo
[12] = Clearance in CD-1 mouse at 2 mg/kg, iv administered as single dose measured upto 24 hrs by LC-MS/MS analysis; assay type: ADME, organism-based; conditions: in vivo
[13] = MRT in CD-1 mouse at 5 mg/kg, po administered as single dose measured upto 24 hrs by LC-MS/MS analysis; assay type: ADME, organism-based; conditions: in vivo
[14] = Oral bioavailability in CD-1 mouse at 5 mg/kg administered as single dose measured upto 24 hrs by LC-MS/MS analysis; assay type: ADME, organism-based; conditions: in vivo
[15] = Volume of distribution at steady state in CD-1 mouse at 2 mg/kg, iv administered as single dose measured upto 24 hrs by LC-MS/MS analysis; assay type: ADME, organism-based; conditions: in vivo, read-out: Vdss
[16] = Drug distribution in DSS-induced ulcerative colitis mouse jejunum at 5 mg/kg, po administered as single dose measured upto 8 hrs by LC-MS/MS analysis; assay type: ADME, organism-based; conditions: in vivo
[17] = Drug distribution in DSS-induced ulcerative colitis mouse colon at 5 mg/kg, po administered as single dose measured upto 8 hrs by LC-MS/MS analysis; assay type: ADME, organism-based; conditions: in vivo
Mus musculus [18] = test: Anti-colitis activity against DSS-induced ulcerative colitis mouse model assessed as attenuation of weight loss administered orally once daily for 7 consecutive days; assay type: functional, organism-based; conditions: dose 25-100 mg/kg, route po, DDE = dose-dependent effect
Mus musculus [19] = test: Anti-colitis activity against DSS-induced ulcerative colitis mouse model assessed as attenuation of stool thinning administered orally once daily for 7 consecutive days; assay type: functional, organism-based; conditions: dose 25-100 mg/kg, route po, DDE = dose-dependent effect
Mus musculus [20] = test: Anti-colitis activity against DSS-induced ulcerative colitis mouse model assessed as attenuation of rectal bleeding administered orally once daily for 7 consecutive days; assay type: functional, organism-based; conditions: dose 25-100 mg/kg, route po, DDE = dose-dependent effect
Mus musculus [21] = test: Anti-colitis activity against DSS-induced ulcerative colitis mouse model assessed as reduction in DAI score administered orally once daily for 7 consecutive days; assay type: functional, organism-based; conditions: dose 25-100 mg/kg, route po, DDE = dose-dependent effect
[22] = target: G-protein coupled receptor 84 (Mus musculus) (UniProt Q8CIM5); test: Antagonist activity at GPR84 expressed in mouse bone marrow cells assessed as reduction in 3-OH-C12 induced migration in neutrophils incubated for 90 mins by flow cytometry; assay type: functional, cell-based; conditions: Bone marrow cell, filed as antagonist, dose 0.01-1 µM, DDE = dose-dependent effect
[23] = target: G-protein coupled receptor 84 (Mus musculus) (UniProt Q8CIM5); test: Antagonist activity at GPR84 expressed in mouse bone marrow cells assessed as reduction in 3-OH-C12 induced migration in monocytes incubated for 90 mins by flow cytometry; assay type: functional, cell-based; conditions: Bone marrow cell, filed as antagonist, dose 0.01-1 µM, DDE = dose-dependent effect
HEK293 = test: Cytotoxicity against HEK293 cells assessed as inhibition of cell growth upto 100 uM measured after 24 hrs by ATPlite assay; assay type: toxicity, cell-based; conditions: human, hek293, 24 h
[24] = Drug distribution in C57 mouse liver at 3 mg/kg, iv administered as single dose measured upto 8 hrs by LC-MS/MS analysis; assay type: ADME, organism-based; conditions: in vivo
[25] = Drug distribution in C57 mouse duodenum at 5 mg/kg, po administered as single dose measured upto 8 hrs by LC-MS/MS analysis; assay type: ADME, organism-based; conditions: in vivo
[26] = Drug distribution in C57 mouse jejunum at 5 mg/kg, po administered as single dose measured upto 8 hrs by LC-MS/MS analysis; assay type: ADME, organism-based; conditions: in vivo
[27] = Drug distribution in C57 mouse ileum at 5 mg/kg, po administered as single dose measured upto 8 hrs by LC-MS/MS analysis; assay type: ADME, organism-based; conditions: in vivo
[28] = Drug distribution in C57 mouse colon at 5 mg/kg, po administered as single dose measured upto 8 hrs by LC-MS/MS analysis; assay type: ADME, organism-based; conditions: in vivo
Bone marrow cell = test: Cytotoxicity against bone marrow cells (unknown origin) assessed as inhibition of cell growth upto 10 uM measured after 1.5 to 2 hrs by ATPlite assay; assay type: toxicity, cell-based; conditions: time 1.5-2 hrs
[29] = Mutagenecity in Salmonella typhimurium TA98 in presence of S9 fraction at 1000 ug by Ames test; assay type: toxicity, subcellular, Salmonella enterica subsp. enterica serovar Typhimurium; conditions: dose 1000 µg
[30] = Mutagenecity in Salmonella typhimurium TA98 in absence of S9 fraction at 1000 ug by Ames test; assay type: toxicity, Salmonella enterica subsp. enterica serovar Typhimurium; conditions: in vivo; dose 1000 µg
[31] = Mutagenecity in Salmonella typhimurium TA100 in presence of S9 fraction at 1000 ug by Ames test; assay type: toxicity, subcellular, Salmonella enterica subsp. enterica serovar Typhimurium; conditions: dose 1000 µg
[32] = Mutagenecity in Salmonella typhimurium TA100 in absence of S9 fraction at 1000 ug by Ames test; assay type: toxicity, Salmonella enterica subsp. enterica serovar Typhimurium; conditions: in vivo; dose 1000 µg

Chain of G-protein coupled receptor 84 (Homo sapiens, UniProt Q9NQS5) (Q9NQS5 whole entry): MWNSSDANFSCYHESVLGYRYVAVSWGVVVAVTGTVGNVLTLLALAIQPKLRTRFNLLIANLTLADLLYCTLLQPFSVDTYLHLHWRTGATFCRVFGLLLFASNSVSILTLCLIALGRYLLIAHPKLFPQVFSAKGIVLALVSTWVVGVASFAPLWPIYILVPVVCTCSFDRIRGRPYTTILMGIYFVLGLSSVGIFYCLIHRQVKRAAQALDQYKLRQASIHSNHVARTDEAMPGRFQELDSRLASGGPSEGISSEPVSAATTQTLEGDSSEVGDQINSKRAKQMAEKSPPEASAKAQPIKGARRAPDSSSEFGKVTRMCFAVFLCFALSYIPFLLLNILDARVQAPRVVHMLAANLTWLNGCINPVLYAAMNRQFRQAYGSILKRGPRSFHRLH
Chain of G-protein coupled receptor 84 (Mus musculus) (Q8CIM5 whole entry): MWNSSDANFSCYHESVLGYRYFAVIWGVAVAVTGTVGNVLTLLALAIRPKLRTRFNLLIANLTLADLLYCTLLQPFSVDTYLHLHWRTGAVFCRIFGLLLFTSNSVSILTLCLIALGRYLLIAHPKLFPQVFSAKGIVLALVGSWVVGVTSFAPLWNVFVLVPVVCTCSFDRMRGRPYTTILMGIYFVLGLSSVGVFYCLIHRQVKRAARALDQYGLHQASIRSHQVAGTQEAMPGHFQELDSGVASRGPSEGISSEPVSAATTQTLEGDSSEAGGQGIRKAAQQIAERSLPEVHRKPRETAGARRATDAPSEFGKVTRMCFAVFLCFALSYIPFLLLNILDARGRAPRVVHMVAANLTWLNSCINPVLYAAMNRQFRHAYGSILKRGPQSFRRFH
Chain of G-protein coupled receptor 84 (Mus musculus, UniProt Q8CIM5) (Q8CIM5 whole entry): as above

IC50 [1]: 716 nM
Structure (SMILES): O=c1nc(OCC2COCCO2)cc2n1CCc1cc(OCc3ccccn3)ccc1-2 (stereo unspecified)

Structure (SMILES): O=P(O)(Oc1ccccc1)Oc1ccccc1
IC50 [1]: > 100000 nM

IC50 [2]: 273 nM | Activity [3]: Dde | Activity [4]: Dde | Tmax [5]: 2.67 h | Cmax [6]: 81.8 ng/mL | MRT [7]: 2.26 h | AUC(0-inf) [8]: 517 ng·h/mL | AUC(0-inf) [9]: 1710 ng·h/mL | half-life [10]: 4.39 h | half-life [11]: 5.12 h | clearance [12]: 20.3 mL/min/kg | MRT [13]: 7.09 h | bioavailability [14]: 11.9% | Vd [15]: 2.98 L/kg | Activity [22]: Dde | Activity [23]: Dde | Drug uptake [24]: Active | Drug uptake [25]: Active | Drug uptake [26]: Active | Drug uptake [27]: Active | Drug uptake [28]: Active
Structure (SMILES): O=P([O-])(OC1=Cc2c(Cl)cccc2Sc2ccccc21)OC1=Cc2c(Cl)cccc2Sc2ccccc21.[Na+]
Drug uptake [16]: Active | Drug uptake [17]: Active | Activity (Mus musculus [18]): Dde | Activity (Mus musculus [19]): Dde | Activity (Mus musculus [20]): Dde | Activity (Mus musculus [21]): Dde | Activity (HEK293): Non-Toxic | Activity (Bone marrow cell): Non-Toxic | Activity [29]: Non-Toxic | Activity [30]: Non-Toxic | Activity [31]: Non-Toxic | Activity [32]: Non-Toxic

Structure (SMILES): COP(=O)(OC1=Cc2ccccc2Sc2ccccc21)OC1=Cc2ccccc2Sc2ccccc21
IC50 [1]: > 100000 nM

IC50 [1]: 1930 nM
Structure (SMILES): O=P(O)(CC1=Cc2ccccc2Sc2ccccc21)CC1=Cc2ccccc2Sc2ccccc21

Activity [3]: Dde | Activity [4]: Dde | Activity [22]: Dde | Activity [23]: Dde
Structure (SMILES): O=c1nc(OC[C@@H]2COCCO2)cc2n1CCc1cc(C#CC3CC3)ccc1-2

IC50 [2]: 454 nM | Tmax [5]: 1.67 h | Cmax [6]: 192 ng/mL | MRT [7]: 0.932 h | AUC(0-inf) [8]: 562 ng·h/mL | AUC(0-inf) [9]: 1420 ng·h/mL | half-life [10]: 1.62 h | half-life [11]: 1.14 h | clearance [12]: 23.7 mL/min/kg | MRT [13]: 4.05 h | bioavailability [14]: 15.7% | Vd [15]: 1.31 L/kg
Structure (SMILES): O=P([O-])(OC1=Cc2ccccc2Sc2ccccc21)OC1=Cc2ccccc2Sc2ccccc21.[Na+]

Tmax [5]: 0.42 h | Cmax [6]: 74.3 ng/mL | MRT [7]: 1.89 h | AUC(0-inf) [8]: 178 ng·h/mL | AUC(0-inf) [9]: 7760 ng·h/mL | half-life [10]: 1.91 h | half-life [11]: 5.75 h | clearance [12]: 4.33 mL/min/kg | MRT [13]: 2.21 h | bioavailability [14]: 0.91% | Vd [15]: 0.5 L/kg
Structure (SMILES): COc1cccc2c1Sc1cccc(F)c1C=C2OP(=O)([O-])OC1=Cc2c(F)cccc2Sc2c(OC)cccc21.[Na+]

IC50 [1]: > 100000 nM
Structure (SMILES): O=P(O)(O)OC1=Cc2ccccc2Sc2ccccc21

Tmax [5]: 1 h | Cmax [6]: 43.6 ng/mL | MRT [7]: 1.82 h | AUC(0-inf) [8]: 236 ng·h/mL | AUC(0-inf) [9]: 4640 ng·h/mL | half-life [10]: 4.99 h | half-life [11]: 5.59 h | clearance [12]: 7.5 mL/min/kg | MRT [13]: 7.41 h | bioavailability [14]: 2.3% | Vd [15]: 0.8 L/kg
Structure (SMILES): COc1cccc2c1Sc1ccccc1C=C2OP(=O)([O-])OC1=Cc2ccccc2Sc2c(OC)cccc21.[Na+]

— ChEMBL document CHEMBL5154757, “Phosphodiesters as GPR84 Antagonists for the Treatment of Ulcerative Colitis” (J Med Chem, 2022)
